One experiment has as its system IL-23 (p19/p40). Briefly: IL23-p19 ELISA, Dendritic, LPS (compound screening using DC cells). The class given is cell-based, Human. The settings on record: PBMC-derived DC cells, IFNγ primed, LPS 1 μg/ml, 18 hours, 10 pt, read-out: IL23-p19 ELISA, Dendritic, LPS, 10 pt, EC50. The essentials:
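IL-23 in supernatants quantified by sandwich ELISA (anti-p19 capture, biotinylated anti-p40 detection, chemiluminescent readout) after 18 h LPS (1 μg/ml) stimulation. Cells were monocyte-derived DCs (GM-CSF/IL-4, 7 d), IFNγ-primed 24 h and given compound 1 h before LPS; viability by CellTiter Glo.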

Another experiment has as its system IL-23p19. Briefly: LPS induced IL23p19 in THP-1 cells (with IFNγ primed) assay. The settings on record: THP-1 cells, IFNγ primed, LPS 1 ug/mL, 18 hours, 10 pt, read-out: IL23-p19 ELISA, THP1-IFNy, LPS, 10 pt EC50. The experiment is classed as cell-based, Human. The procedure, abridged: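 Readout is secreted IL-23p19, quantified by chemiluminescent sandwich ELISA after 18 h LPS (1 ug/mL) stimulation of THP-1 cells that had been IFNγ-primed (50 ng/mL, ~18 h) and given compound 1 h beforehand at 37 °C. EC50 derived by curve fit; cytotoxicity tracked with Cell Titer Glo.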
(An ELISA detects its analyte on a solid surface through an enzyme-linked reagent.)

For orientation: EC50 means the concentration at which the effect is half-maximal.

Molecules are shown by their SMILES. Structures can show the parent of a compound that is named as a salt. Where two headings read alike, the source gives them in different places.

As for `CCOCCn1cc(NC(=O)c2ccc(-c3cnn(C)c3)o2)c(-c2ccccn2)n1` [Compound I-45, N-(1-(2-ethoxyethyl)-3-(pyridin-2-yl)-1H-pyrazol-4-yl)-5-(1-methyl-1H-pyrazol-4-yl)furan-2-carboxamide formate], the EC50 in the experiment on IL-23 (p19/p40) (Homo sapiens, 18 h) came out at 5450 nM; with IL-23p19 (Homo sapiens, THP-1, 18 h) it was 1080 nM.

For the compound `O=C(Nc1c[nH]nc1-c1ccccn1)c1ccc(-c2cn[nH]c2)o1` [Compound I-47, 5-(1H-pyrazol-4-yl)-N-(3-(pyridin-2-yl)-1H-pyrazol-4-yl)furan-2-carboxamide], the EC50 came out at 327 nM in the experiment with IL-23 (p19/p40) (Homo sapiens, 18 h) and 392 nM in the experiment with IL-23p19 (Homo sapiens, THP-1, 18 h).

In the case of `CC1(Cn2cc(-c3ccc(C(=O)Nc4cn(CC5(C)COC5)nc4-c4ccccn4)o3)cn2)COC1` [Compound I-48, 5-(1-((3-methyloxetan-3-yl)methyl)-1H-pyrazol-4-yl)-N-(1-((3-methyloxetan-3-yl)methyl)-3-(pyridin-2-yl)-1H-pyrazol-4-yl)furan-2-carboxamide formate], the EC50 in the experiment with IL-23 (p19/p40) (Homo sapiens, 18 h) came to 7500 nM; with IL-23p19 (Homo sapiens, THP-1, 18 h), 5520 nM.

For `COCCOCCN(C(=O)c1ccc(-c2cnn(CCOCCOC)c2)o1)c1cn(CCOCCOC)nc1-c1ccccn1` [Compound I-50, N-(2-(2-methoxyethoxy)ethyl)-5-(1-(2-(2-methoxyethoxy)ethyl)-1H-pyrazol-4-yl)-N-(1-(2-(2-methoxyethoxy)ethyl)-3-(pyridin-2-yl)-1H-pyrazol-4-yl)furan-2-carboxamide formate], the EC50 in the experiment with IL-23 (p19/p40) (Homo sapiens, 18 h) worked out at 3510 nM; with IL-23p19 (Homo sapiens, THP-1, 18 h), 14200 nM.

In the case of `CCOCCn1cc(NC(=O)c2ccc(-c3cnn(COP(=O)(O)O)c3)o2)c(-c2ccccn2)n1` [Compound I-54, (4-(5-((1-(2-ethoxyethyl)-3-(pyridin-2-yl)-1H-pyrazol-4-yl)carbamoyl)furan-2-yl)-1H-pyrazol-1-yl)methyl dihydrogen phosphate], the EC50 was found to be 1580 nM in the experiment with IL-23 (p19/p40) (Homo sapiens, 18 h) and 617 nM with IL-23p19 (Homo sapiens, THP-1, 18 h).

In the case of `CCOCCn1cc(NC(=O)c2ccc(-c3cnn(COP(=O)(O)O)c3)o2)c(-c2ccccn2)n1` [Compound I-55, sodium (4-(5-((1-(2-ethoxyethyl)-3-(pyridin-2-yl)-1H-pyrazol-4-yl)carbamoyl)furan-2-yl)-1H-pyrazol-1-yl)methyl phosphate], the EC50 in the experiment on IL-23 (p19/p40) (phosphate) came to 801 nM; in the experiment on IL-23p19 (phosphate) it was 1200 nM.

Regarding `CCOCCn1cc(NC(=O)c2ccc(-c3c[nH]nc3C)o2)c(-c2ccccn2)n1` [Compound I-56, N-(1-(2-ethoxyethyl)-3-(pyridin-2-yl)-1H-pyrazol-4-yl)-5-(3-methyl-1H-pyrazol-4-yl)furan-2-carboxamide formate], the EC50 in the experiment with IL-23 (p19/p40) (Homo sapiens, 18 h) was 7720 nM; in the experiment with IL-23p19 (Homo sapiens, THP-1, 18 h) it was 156 nM.

With `CCOCCn1cc(NC(=O)c2ccc(-c3c(C)n[nH]c3C)o2)c(-c2ccccn2)n1` [Compound I-58, 5-(3,5-dimethyl-1H-pyrazol-4-yl)-N-(1-(2-ethoxyethyl)-3-(pyridin-2-yl)-1H-pyrazol-4-yl)furan-2-carboxamide formate], the EC50 came to 27500 nM in the experiment on IL-23 (p19/p40) (Homo sapiens, 18 h) and 2810 nM in the experiment on IL-23p19 (Homo sapiens, THP-1, 18 h).

As to `O=C(Nc1cn(C2CCOCC2)nc1-c1nccs1)c1ccc(-c2cn[nH]c2)o1` [Compound I-60, 5-(1H-pyrazol-4-yl)-N-(1-(tetrahydro-2H-pyran-4-yl)-3-(thiazol-2-yl)-1H-pyrazol-4-yl)furan-2-carboxamide formate], the EC50 with IL-23 (p19/p40) (formate) was found to be 33.8 nM; in the experiment with IL-23p19 (formate) it was 174 nM.

For `CCO[C@H]1C[C@@H](n2cc(NC(=O)c3ccc(-c4cn[nH]c4)o3)c(-c3nccs3)n2)C1` [Compound I-62, N-(1-((1s,3s)-3-ethoxycyclobutyl)-3-(thiazol-2-yl)-1H-pyrazol-4-yl)-5-(1H-pyrazol-4-yl)furan-2-carboxamide formate], the EC50 with IL-23 (p19/p40) (Homo sapiens, 18 h) came to 115 nM; in the experiment on IL-23p19 (Homo sapiens, THP-1, 18 h) it was 48.1 nM.

In the case of `COCCOCCn1cc(NC(=O)c2ccc(-c3cn[nH]c3)o2)c(-c2nccs2)n1` [Compound I-64, N-(1-(2-(2-methoxyethoxy)ethyl)-3-(thiazol-2-yl)-1H-pyrazol-4-yl)-5-(1H-pyrazol-4-yl)furan-2-carboxamide], the EC50 is 366 nM with IL-23 (p19/p40) (Homo sapiens, 18 h) and 77.7 nM with IL-23p19 (Homo sapiens, THP-1, 18 h).

In the case of `O=C(Nc1cn(C2CCOCC2)nc1-c1nccs1)c1ccc(-c2cn[nH]c2)o1` [Compound I-65, 5-(1H-pyrazol-4-yl)-N-(1-(tetrahydro-2H-pyran-4-yl)-3-(thiazol-2-yl)-1H-pyrazol-4-yl)furan-2-carboxamide], the EC50 is 199 nM in the experiment on IL-23 (p19/p40) and 54.3 nM in the experiment with IL-23p19.

With `Cn1cc(NC(=O)c2ccc(-c3cn[nH]c3)o2)c(-c2ccccn2)n1` [Compound I-67, N-{1-Methyl-3-(pyridine-2-yl)-1H-pyrazol-4-yl}-5-(1H-pyrazol-4-yl)furan-2-carboxamide, formate salt], the EC50 is 4.1 nM with IL-23 (p19/p40) (formate salt) and 72.3 nM in the experiment on IL-23p19 (Homo sapiens, THP-1, 18 h).

Take `Cn1cc(-c2ccc(C(=O)Nc3cn(C)nc3-c3ccccn3)o2)cn1` [Compound I-69, 5-(1-Methyl-1H-pyrazol-4-yl)-N-{1-methyl-3-(pyridine-2-yl)-1H-pyrazol-4-yl}furan-2-carboxamide, formate salt]: the EC50 in the experiment on IL-23 (p19/p40) (Homo sapiens, 18 h) came to 325 nM; with IL-23p19 (Homo sapiens, THP-1, 18 h) it was 1250 nM.

In the case of `CC(C)(C)OC(=O)N1CC(n2cc(NC(=O)c3ccc(-c4cn[nH]c4)o3)c(-c3ccccn3)n2)C1` [Compound I-70, tert-Butyl-3-[4-{5-(1H-pyrazole-4-yl)furan-2-carboxamido}-3-(pyridine-2-yl)-1H-pyrazol-1-yl]azetidine-1-carboxylate, formate salt], the EC50 in the experiment with IL-23 (p19/p40) (formate salt) came to 28.3 nM; with IL-23p19 (formate salt) it was 366 nM.

As for `COC1CC(n2cc(NC(=O)c3ccc(-c4cn[nH]c4)o3)c(-c3ccccn3)n2)C1` (stereo not drawn) [Compound I-71, N-{1-(3-Methoxycyclobutyl)-3-(pyridine-2-yl)-1H-pyrazol-4-yl}-5-(1H-pyrazol-4-yl)furan-2-carboxamide, formate salt, Cis isomer], the EC50 in the experiment with IL-23 (p19/p40) was determined as 22.5 nM; with IL-23p19 it was 26.5 nM.

For the compound `COC1CC(n2cc(NC(=O)c3ccc(-c4cn[nH]c4)o3)c(-c3ccccn3)n2)C1` (stereo not drawn) [Compound I-72, N-{1-(3-Methoxycyclobutyl)-3-(pyridine-2-yl)-1H-pyrazol-4-yl}-5-(1H-pyrazol-4-yl)furan-2-carboxamide, Cis isomer], the EC50 with IL-23 (p19/p40) was found to be 5 nM; in the experiment with IL-23p19, 56.8 nM.

On to `O=C(Nc1cn(C2CC(OCc3ccccc3)C2)nc1-c1ccccn1)c1ccc(-c2cn[nH]c2)o1` (stereo not drawn) [Compound I-73, N-{1-(3-Benzyloxy)cyclobutyl)-3-(pyridine-2-yl)-1H-pyrazol-4-yl}-5-(1H-pyrazol-4-yl)furan-2-carboxamide, Trans isomer], for which the EC50 with IL-23 (p19/p40) (Homo sapiens, 18 h) came out at 410 nM; in the experiment on IL-23p19 (Homo sapiens, THP-1, 18 h), 697 nM.

For the compound `CC(C)(C)OC(=O)N1CC(n2cc(NC(=O)c3ccc(-c4cn[nH]c4)o3)c(-c3ccccn3)n2)C1` [Compound I-74, tert-Butyl-3-[4-{5-(1H-pyrazole-4-yl)furan-2-carboxamido}-3-(pyridine-2-yl)-1H-pyrazol-1-yl]azetidine-1-carboxylate], the values for the EC50 with IL-23 (p19/p40) and in the experiment on IL-23p19 were 131 nM and 151 nM, respectively.

`COC1CC(n2cc(NC(=O)c3ccc(-c4cn[nH]c4)o3)c(-c3ccccn3)n2)C1` (stereo not shown) [Compound I-75, N-(1-((1s,3s)-3-methoxycyclobutyl)-3-(pyridin-2-yl)-1H-pyrazol-4-yl)-5-(1H-pyrazol-4-yl)furan-2-carboxamide formate]: the EC50 with IL-23 (p19/p40) was 19.5 nM; in the experiment on IL-23p19, 102 nM.

The values above are taken from patent publication US10208074B2, “Pyrazole compounds and method for making and using the compounds” (Rigel Pharmaceuticals, Inc., priority 2015, dated 2019).
